Source: publication PMC3429931 (Biochemical Journal, 2012)
Blank lines part the entries; values can stand above or below the compound they belong to.

Legend:
[1] = target: T1, Dat (dopamine N-acetyltransferase), wild-type / full-length (Drosophila melanogaster, UniProt Q94521); assay: isothermal titration calorimetry; assay type: binding
[2] = target: Dat (dopamine N-acetyltransferase), wild-type / full-length (Drosophila melanogaster, UniProt Q94521, Y220F); assay: Ellman's reagent; details: read-out: Tryptamine Km; 30 °C, 50 mM sodium phosphate pH 7.2, 500 mM NaCl, 2 mM EDTA, 2 mM AcCoA
Chain of Dat (dopamine N-acetyltransferase), wild-type / full-length (Drosophila melanogaster, UniProt Q94521, Y220F) (Q94521 36-275 Y220F): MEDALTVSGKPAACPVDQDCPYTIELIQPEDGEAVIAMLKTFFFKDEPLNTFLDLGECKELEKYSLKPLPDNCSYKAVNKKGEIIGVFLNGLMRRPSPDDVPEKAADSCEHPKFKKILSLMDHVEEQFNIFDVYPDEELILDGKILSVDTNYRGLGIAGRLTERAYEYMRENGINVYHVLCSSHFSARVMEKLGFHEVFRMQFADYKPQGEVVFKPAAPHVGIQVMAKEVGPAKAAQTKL

[3] = target: Dat (dopamine N-acetyltransferase), wild-type / full-length (Drosophila melanogaster, UniProt Q94521, Y220A); assay: Ellman's reagent; details: read-out: Tryptamine Km; 30 °C, 50 mM sodium phosphate pH 7.2, 500 mM NaCl, 2 mM EDTA, 2 mM AcCoA
Chain of Dat (dopamine N-acetyltransferase), wild-type / full-length (Drosophila melanogaster, UniProt Q94521, Y220A) (Q94521 36-275 Y220A): as the sequence (Q94521 36-275 Y220F) above, with F185A counted along it

[4] = target: Dat (dopamine N-acetyltransferase), wild-type / full-length (Drosophila melanogaster, UniProt Q94521, S221A); assay: Ellman's reagent; details: read-out: Tryptamine Km; 30 °C, 50 mM sodium phosphate pH 7.2, 500 mM NaCl, 2 mM EDTA, 2 mM AcCoA
Chain of Dat (dopamine N-acetyltransferase), wild-type / full-length (Drosophila melanogaster, UniProt Q94521, S221A) (Q94521 36-275 S221A): as the sequence (Q94521 36-275 Y220F) above, with F185Y, S186A counted along it

[5] = target: Dat (dopamine N-acetyltransferase), wild-type / full-length (Drosophila melanogaster, UniProt Q94521, E82A); assay: Ellman's reagent; details: read-out: Tryptamine Km; 30 °C, 50 mM sodium phosphate pH 7.2, 500 mM NaCl, 2 mM EDTA, 2 mM AcCoA
Chain of Dat (dopamine N-acetyltransferase), wild-type / full-length (Drosophila melanogaster, UniProt Q94521, E82A) (Q94521 36-275 E82A): as the sequence (Q94521 36-275 Y220F) above, with E47A, F185Y counted along it

[6] = target: Dat (dopamine N-acetyltransferase), wild-type / full-length (Drosophila melanogaster, UniProt Q94521, S217A); assay: Ellman's reagent; details: read-out: Tryptamine Km; 30 °C, 50 mM sodium phosphate pH 7.2, 500 mM NaCl, 2 mM EDTA, 2 mM AcCoA
Chain of Dat (dopamine N-acetyltransferase), wild-type / full-length (Drosophila melanogaster, UniProt Q94521, S217A) (Q94521 36-275 S217A): as the sequence (Q94521 36-275 Y220F) above, with S182A, F185Y counted along it

[7] = target: T1, Dat (dopamine N-acetyltransferase), wild-type / full-length; assay: Ellman's reagent; details: read-out: Tryptamine Km; 30 °C, 50 mM sodium phosphate pH 7.2, 500 mM NaCl, 2 mM EDTA, 2 mM AcCoA

T1 sequence (Q94521 36-275): as the sequence (Q94521 36-275 Y220F) above, with F185Y counted along it

Kd [1]: 5.43 ± 1.09 µM
SMILES: CC(=O)SCCNC(=O)CCNC(=O)[C@H](O)C(C)(C)COP(=O)(O)OP(=O)(O)OC[C@H]1O[C@@H](n2cnc3c(N)ncnc32)[C@H](O)[C@@H]1OP(=O)(O)O [AcCoA]

Kd [1]: 25.9 ± 2.5 µM
SMILES: NCCc1ccc(O)c(O)c1 [dopamine]

SMILES: NCCc1c[nH]c2ccc(O)cc12 [serotonin]
Kd [1]: 223 µM

SMILES: NCCc1c[nH]c2ccccc12 [tryptamine]
Km [2]: 470 ± 80 µM
Km [3]: 490 ± 70 µM
Km [4]: 550 ± 70 µM
Km [5]: 1200 ± 100 µM
Km [6]: 650 ± 90 µM
Km [7]: 470 ± 90 µM
